Results: US20210113501A1, “METHOD OF ADMINISTERING BETA-HYDROXY-BETA-METHYLBUTYRATE (HMB)” (Metabolic Technologies, Inc., priority 2009, published 2021)

Assay: Study 1 blood chemistry
Assay type: in vivo, human
Details: for Gamma-glutamyl: in U/L (unit assumed); for A:G Ratio % Change / Alanine Aminotransferase % Change / Albumin % Change / Alkaline Phosphatase % Change / Aspartate Aminotransferase % Change / Blood Urea Nitrogen % Change / CO2 % Change / Chloride % Change / Cholesterol Ratio % Change / Creatinine % Change / Direct Bilirubin % Change / Gamma-glutamyl % Change / Globulin % Change / Glucose % Change / HDL % Change / Iron % Change / Iron Binding Capacity % Change / Iron Saturation % Change / LDL % Change / Lactate Dehydrogenase % Change / Phosphorus % Change / Potassium % Change / Protein % Change / Sodium % Change / Total Bilirubin % Change / Total Cholesterol % Change / Triglycerides % Change / UIBC % Change / Uric Acid % Change: Before to After
Procedure: Study 1 design. For study 1 the subjects reported to the laboratory in the morning following an overnight fast. Before ingestion of one of the supplemental treatments, a flexible sterile polyethylene catheter was inserted into a forearm vein using sterile procedures and a pre-ingestion blood sample was drawn. Subsequent blood samples were taken at 0, 2, 5, 10, 15, 25, 35, 45, 60, 90, 120 and 180 min after ingestion of the treatment. Plasma was separated and samples were stored frozen at −70° C. for analysis of HMB concentration. In addition, a portion of the pre-ingestion and 180 minute blood samples were used for measurements (LabCorp, Kansas City, Mo.) of glucose, uric acid, blood urea nitrogen (BUN), creatinine, sodium, potassium, chloride, carbon dioxide, phosphorous, protein, albumin, globulin, albumin:globulin ratio, total bilirubin, direct bilirubin, alkaline phosphatase, lactate dehydrogenase, aspartate aminotransferase (AST), alanine aminotransferase (ALT), gamma-glutamyl transpeptidase (GGT), iron binding capacity (TIBC), unsaturated iron binding capacity (UIBC), iron, iron saturation, total cholesterol, triglycerides, high density lipoprotein (HDL), low density lipoprotein (LDL), and cholesterol ratio. A complete blood count (CBC) was also performed before and after the 180 min treatment period. Subjects also completed a brief questionnaire to report any physical symptoms (such as nausea, headache, etc) they may have experienced during the experiment.
The data were analyzed using a crossover design with Proc GLM in SAS. (45) For the timed sampling of plasma HMB a repeated measures polynomial model was used. The model included subject, order, and treatment main effects and time by treatment interaction where appropriate. For other parameters Proc GLM was also used with subject, order, and treatment main effects and the p values are reported for the treatment main effect. Statistical significance was determined for p<0.05 and a trend was determined for 0.05<p<0.10.

[1] = After (180 min), listed as Free Acid Gel Swallow
[2] = listed as Free Acid Gel Swallow
[3] = Before, listed as Free Acid Gel Swallow

For `CC(C)(O)CC(=O)[O-].CC(C)(O)CC(=O)[O-].[Ca+2]` [CaHMB, calcium β-hydroxy-β-methylbutryate, reference compound], the “A:G Ratio” value (After (180 min)) was 1.7 ± 0.1, the “Alanine Aminotransferase” value (After (180 min)) was 15.6 ± 2.0 IU/L and the Albumin (After (180 min)) was 4.1 ± 0.1 g/dL. For the same molecule, the “Alkaline Phosphatase” value (After (180 min)) was 68.4 ± 8.4 IU/L, the “Aspartate Aminotransferase” value (After (180 min)) was 22.4 ± 1.8 IU/L and the “Blood Urea Nitrogen” value (After (180 min)) was 11.3 ± 0.9 mg/dL. For the same molecule, the CO2 (After (180 min)) was 24.8 ± 0.5 mEq/L, the Chloride (After (180 min)) was 103.1 ± 0.7 mEq/L and the “Cholesterol Ratio” value (After (180 min)) was 3.0 ± 0.1. The Creatinine (After (180 min)) was 0.9 ± 0.1 mg/dL, the “Direct Bilirubin” value (After (180 min)) was 0.1 ± 0.01 mg/dL and the Globulin (After (180 min)) was 2.5 ± 0.2 g/dL. The Glucose (After (180 min)) was 76.4 ± 3.2 mg/dL, the HDL (After (180 min)) was 53.1 ± 3.8 mg/dL and the Iron (After (180 min)) was 93.0 ± 16.8 µg/dL. The “Iron Binding Capacity” value (After (180 min)) was 342.8 ± 35.9 µg/dL, the “Iron Saturation” value (After (180 min)) was 31.1 ± 8.9% and the LDL (After (180 min)) was 86.5 ± 5.7 mg/dL. The “Lactate Dehydrogenase” value (After (180 min)) was 165.6 ± 10.7 IU/L, the Phosphorus (After (180 min)) was 3.5 ± 0.3 mg/dL and the Potassium (After (180 min)) was 4.7 ± 0.2 mEq/L. For the same molecule, the Protein (After (180 min)) was 6.5 ± 0.3 g/dL, the Sodium (After (180 min)) was 139.4 ± 0.8 mEq/L and the “Total Bilirubin” value (After (180 min)) was 0.5 ± 0.08 mg/dL. The “Total Cholesterol” value (After (180 min)) was 153.9 ± 9.7 mg/dL, the Triglycerides (After (180 min)) was 71.6 ± 11.2 mg/dL and the UIBC (After (180 min)) was 249.8 ± 47.7 µg/dL. The “Uric Acid” value (After (180 min)) was 4.5 ± 0.4 mg/dL, the Gamma-glutamyl (After (180 min)) was 13.1 ± 0.9 and the “A:G Ratio” value (Before) was 1.8 ± 0.1. For the same molecule, the “Alanine Aminotransferase” value (Before) was 14.1 ± 1.5 IU/L, the Albumin (Before) was 4.0 ± 0.1 g/dL and the “Alkaline Phosphatase” value (Before) was 66.5 ± 6.5 IU/L. For the same molecule, the “Aspartate Aminotransferase” value (Before) was 21.4 ± 1.5 IU/L, the “Blood Urea Nitrogen” value (Before) was 12.1 ± 1.0 mg/dL and the CO2 (Before) was 23.4 ± 0.6 mEq/L. The Chloride (Before) was 103.3 ± 0.6 mEq/L, the “Cholesterol Ratio” value (Before) was 3.0 ± 0.1 and the Creatinine (Before) was 0.9 ± 0.1 mg/dL. The “Direct Bilirubin” value (Before) was 0.1 ± 0.02 mg/dL, the Globulin (Before) was 2.3 ± 0.2 g/dL and the Glucose (Before) was 72.6 ± 1.6 mg/dL. The HDL (Before) was 51.3 ± 3.2 mg/dL, the Iron (Before) was 83.3 ± 16.7 µg/dL and the “Iron Binding Capacity” value (Before) was 330.4 ± 32.9 µg/dL. For the same molecule, the “Iron Saturation” value (Before) was 29.9 ± 9.5%, the LDL (Before) was 86.1 ± 5.3 mg/dL and the “Lactate Dehydrogenase” value (Before) was 160.9 ± 9.5 IU/L. It also gave a Phosphorus (Before) of 3.9 ± 0.2 mg/dL, a Potassium (Before) of 4.1 ± 0.1 mEq/L and a Protein (Before) of 6.3 ± 0.2 g/dL. For the same molecule, the Sodium (Before) was 139.1 ± 0.5 mEq/L, the “Total Bilirubin” value (Before) was 0.5 ± 0.07 mg/dL and the “Total Cholesterol” value (Before) was 153.4 ± 9.1 mg/dL. The Triglycerides (Before) was 80.4 ± 11.6 mg/dL, the UIBC (Before) was 247.1 ± 45.0 µg/dL and the “Uric Acid” value (Before) was 4.5 ± 0.3 mg/dL. The “A:G Ratio % Change” value was −8.9%, the “Alanine Aminotransferase % Change” value was 10.6% and the “Albumin % Change” value was 0.3%. For the same molecule, the “Alkaline Phosphatase % Change” value was 2.8%, the “Aspartate Aminotransferase % Change” value was 4.7% and the “Blood Urea Nitrogen % Change” value was −7.2%. The “CO2 % Change” value was 5.9%, the “Chloride % Change” value was −0.1% and the “Cholesterol Ratio % Change” value was −2.5%. The “Creatinine % Change” value was 0.5%, the “Direct Bilirubin % Change” value was 5.8% and the “Gamma-glutamyl % Change” value was −4.5%. The “Globulin % Change” value was 8.2%, the “Glucose % Change” value was 5.2% and the “HDL % Change” value was 3.7%. The “Iron % Change” value was 11.7%, the “Iron Binding Capacity % Change” value was 3.7% and the “Iron Saturation % Change” value was 4.2%. The “LDL % Change” value was 0.4%, the “Lactate Dehydrogenase % Change” value was 3.0% and the “Phosphorus % Change” value was −10.8%. For the same molecule, the “Potassium % Change” value was 13.4%, the “Protein % Change” value was 3.2% and the “Sodium % Change” value was 0.2%. The “Total Bilirubin % Change” value was 7.9%, the “Total Cholesterol % Change” value was 0.3% and the “Triglycerides % Change” value was −10.9%. The “UIBC % Change” value was 1.1%, the “Uric Acid % Change” value was −1.4% and the Gamma-glutamyl (Before) was 13.8 ± 0.9.
In the case of `CC(C)(O)CC(=O)O` [HMB-Acid Gel Swallow, 3-hydroxy-3-methylbutyric acid], the Albumin (After (180 min)) is reported as 4.1 ± 0.2 g/dL, the “Direct Bilirubin” value (After (180 min)) is reported as 0.1 ± 0.01 mg/dL and the “A:G Ratio” value [1] is reported as 1.9 ± 0.1. For the same molecule, the “Alanine Aminotransferase” value [1] was 15.6 ± 1.3 IU/L, the “Alkaline Phosphatase” value [1] was 64.4 ± 6.7 IU/L and the “Aspartate Aminotransferase” value [1] was 23.1 ± 2.0 IU/L. For the same molecule, the “Blood Urea Nitrogen” value [1] was 14.4 ± 1.5 mg/dL, the CO2 [1] was 24.3 ± 0.5 mEq/L and the Chloride [1] was 103.3 ± 0.5 mEq/L. The “Cholesterol Ratio” value [1] was 3.3 ± 0.3, the Creatinine [1] was 0.9 ± 0.1 mg/dL and the Globulin [1] was 2.2 ± 0.1 g/dL. The Glucose [1] was 73.3 ± 4.1 mg/dL, the HDL [1] was 48.5 ± 3.7 mg/dL and the Iron [1] was 96.3 ± 17.3 µg/dL. The “Iron Binding Capacity” value [1] was 333.4 ± 35.2 µg/dL, the “Iron Saturation” value [1] was 33.5 ± 8.4% and the LDL [1] was 85.6 ± 4.1 mg/dL. The “Lactate Dehydrogenase” value [1] was 166.3 ± 11.1 IU/L, the Phosphorus [1] was 3.4 ± 0.1 mg/dL and the Potassium [1] was 4.6 ± 0.3 mEq/L. For the same molecule, the Protein [1] was 6.3 ± 0.2 g/dL, the Sodium [1] was 138.3 ± 0.9 mEq/L and the “Total Bilirubin” value [1] was 0.5 ± 0.07 mg/dL. For the same molecule, the “Total Cholesterol” value [1] was 153.3 ± 5.6 mg/dL, the Triglycerides [1] was 87.5 ± 14.8 mg/dL and the UIBC [1] was 237.1 ± 49.2 µg/dL. For the same molecule, the “Uric Acid” value [1] was 4.9 ± 0.4 mg/dL, the Gamma-glutamyl [1] was 13.5 ± 1.1 and the “A:G Ratio” value (Before) was 1.9 ± 0.1. For the same molecule, the Creatinine (Before) was 1.0 ± 0.1 mg/dL, the “Direct Bilirubin” value (Before) was 0.1 ± 0.01 mg/dL and the “Total Bilirubin” value (Before) was 0.4 ± 0.05 mg/dL. The “A:G Ratio % Change” value [2] was 0.0%, the “Alanine Aminotransferase % Change” value [2] was −1.6% and the “Albumin % Change” value [2] was 1.9%. For the same molecule, the “Alkaline Phosphatase % Change” value [2] was 0.8%, the “Aspartate Aminotransferase % Change” value [2] was −3.6% and the “Blood Urea Nitrogen % Change” value [2] was −6.5%. For the same molecule, the “CO2 % Change” value [2] was 8.1%, the “Chloride % Change” value [2] was −0.4% and the “Cholesterol Ratio % Change” value [2] was −3.3%. The “Creatinine % Change” value [2] was −4.7%, the “Direct Bilirubin % Change” value [2] was 7.9% and the “Gamma-glutamyl % Change” value [2] was −6.1%. The “Globulin % Change” value [2] was 0.6%, the “Glucose % Change” value [2] was 3.9% and the “HDL % Change” value [2] was 3.5%. The “Iron % Change” value [2] was 12.6%, the “Iron Binding Capacity % Change” value [2] was 1.4% and the “Iron Saturation % Change” value [2] was 9.4%. The “LDL % Change” value [2] was −3.1%, the “Lactate Dehydrogenase % Change” value [2] was −1.5% and the “Phosphorus % Change” value [2] was −15.6%. For the same molecule, the “Potassium % Change” value [2] was 11.4%, the “Protein % Change” value [2] was 1.4% and the “Sodium % Change” value [2] was −0.2%. The “Total Bilirubin % Change” value [2] was 23.3%, the “Total Cholesterol % Change” value [2] was −0.2% and the “Triglycerides % Change” value [2] was −4.1%. For the same molecule, the “UIBC % Change” value [2] was −2.5%, the “Uric Acid % Change” value [2] was 0.8% and the “Alanine Aminotransferase” value [3] was 15.9 ± 1.5 IU/L. For the same molecule, the Albumin [3] was 4.0 ± 0.2 g/dL, the “Alkaline Phosphatase” value [3] was 63.9 ± 5.8 IU/L and the “Aspartate Aminotransferase” value [3] was 24.0 ± 2.2 IU/L. The “Blood Urea Nitrogen” value [3] was 15.4 ± 1.6 mg/dL, the CO2 [3] was 22.4 ± 0.7 mEq/L and the Chloride [3] was 103.6 ± 0.8 mEq/L. For the same molecule, the “Cholesterol Ratio” value [3] was 3.4 ± 0.2, the Globulin [3] was 2.2 ± 0.1 g/dL and the Glucose [3] was 70.5 ± 1.7 mg/dL. The HDL [3] was 46.9 ± 3.4 mg/dL, the Iron [3] was 85.5 ± 19.2 µg/dL and the “Iron Binding Capacity” value [3] was 328.6 ± 31.0 µg/dL. The “Iron Saturation” value [3] was 30.6 ± 9.4%, the LDL [3] was 88.4 ± 3.0 mg/dL and the “Lactate Dehydrogenase” value [3] was 168.8 ± 10.4 IU/L. For the same molecule, the Phosphorus [3] was 4.0 ± 0.1 mg/dL, the Potassium [3] was 4.2 ± 0.1 mEq/L and the Protein [3] was 6.2 ± 0.2 g/dL. For the same molecule, the Sodium [3] was 138.5 ± 1.1 mEq/L, the “Total Cholesterol” value [3] was 153.5 ± 5.3 mg/dL and the Triglycerides [3] was 91.3 ± 17.0 mg/dL. For the same molecule, the UIBC [3] was 243.1 ± 47.4 µg/dL, the “Uric Acid” value [3] was 4.9 ± 0.4 mg/dL and the Gamma-glutamyl [3] was 14.4 ± 1.6.
